Experiments:
[1] = system: recombinant human ICAM-1/VCAM-1; assay: Flow chamber: Jurkat E6.1 T cell-rolling on recombinant ICAM-1/VCAM-1, semi short-term conditions; type: cell-based; conditions: Jurkat E6.1 T cells, +AMG 103 10 ng/ml, t=45 min; coated at 12.5 and 10 μg/ml; control −AMG 103 640±91
Procedure: Recombinant proteins (rhICAM-1 #ADP4-050, rhVCAM-1 #ADP5-050 or rhP-selectin #ADP3-050, R&D Systems) were dissolved in ddH2O according to the manufacturer's instructions. Prior to rolling experiments recombinant proteins were diluted in Dulbecco's PBS with Ca^2+ and Mg^2+ (#L1815, Biochrom) and coated onto a μ-slide VI^0.4 Luer ibiTreat (#80606, ibidi) over night at 4° C. Before usage slides were washed three times with Dulbecco's PBS and blocked where indicated with 20% FBS (#10270, Gibco) in PBS for 2 h at room temperature. Blocking solution was replaced by RPMI 1640 medium (#FG1215, Biochrom) without supplements. […]
For rolling experiments using Jurkat E6.1 T cells, these cells were resuspended in RPMI 1640 medium (#FG1215, Biochrom) without supplements to a final concentration of 1.5-3×10^5 cells/ml. […] Image sequences of 45 sec duration were recorded at t=40 min, 45 min, and 50 min as described in Example 2 (p. 50, 18-23).
Experiments under defined hydrodynamic flow conditions were performed by using either freshly isolated human T cells or Jurkat E6.1 T cells and μ-slide VI^0.4 Luer ibiTreat (#80606, ibidi) coated with different recombinant proteins as described above. […] T cell-interactions with recombinant proteins were recorded as described above and data was analyzed as described in detail in Example 2 (p. 50, 23-30). […]

recombinant human VCAM-1 = assay: Flow chamber: T cell-rolling on recombinant VCAM-1, semi short-term conditions; type: cell-based; conditions: freshly isolated T cells
Procedure: Recombinant proteins (rhICAM-1 #ADP4-050, rhVCAM-1 #ADP5-050 or rhP-selectin #ADP3-050, R&D Systems) were dissolved in ddH2O according to the manufacturer's instructions. Prior to rolling experiments recombinant proteins were diluted in Dulbecco's PBS with Ca^2+ and Mg^2+ (#L1815, Biochrom) and coated onto a μ-slide VI^0.4 Luer ibiTreat (#80606, ibidi) over night at 4° C. Before usage slides were washed three times with Dulbecco's PBS and blocked where indicated with 20% FBS (#10270, Gibco) in PBS for 2 h at room temperature. Blocking solution was replaced by RPMI 1640 medium (#FG1215, Biochrom) without supplements.
Isolation and characterization of human peripheral blood mononuclear cells (PBMC) and T cells from blood were performed as described in Example 2 (p. 48, 1-31).
For rolling experiments using freshly isolated T cells, these cells were resuspended in RPMI 1640 medium (#FG1215, Biochrom) without supplements to a final concentration of 1×10^6 cells/ml at the start of the experiment (t=0 min; addition of 10 ng/ml Blinatumomab (AMG 103)) and incubated for 35 min at 37° C. and 5% CO2. Cells were then filled in a perfusion set “white” (#10963, ibidi) which was connected to both a fluidic unit and the μ-slide and image sequences of 45 sec duration were recorded at t=40 min, 45 min, and 50 min as described in Example 2 (p. 50, 18-23). […]

Substance: Blinatumomab: recombinant CD19×CD3 bispecific scFv antibody consisting of four immunoglobulin variable domains assembled into a single polypeptide chain
- mean T cell-rolling velocity±SD [1]: 518±98 μm/sec
- mean T cell-rolling velocity±SD (recombinant human VCAM-1; +AMG 103 10 ng/ml with vehicle DMSO, t=40 min, coated at 20 μg/ml, control −AMG 103 259±35): 205±45 μm/sec
- mean T cell-rolling velocity±SD (recombinant human VCAM-1; +AMG 103 10 ng/ml, t=45 min, coated at 10 μg/ml, with blocking, control −AMG 103 418±136): 353±72 μm/sec
